Test results: US11147792B2, “Inhibitors of microbially induced amyloid” (Axial Therapeutics, Inc, priority 2017, dated 2021)
Read-outs that look alike come from different tables or passages of the source.

How the values were obtained:
[1] = target: T1, α-synuclein seeded by E. coli CsgA (Homo sapiens, UniProt P37840); assay: In vitro Thioflavin T assay of CsgA-seeded α-synuclein aggregation; format: biochemical; details: compounds at 50 μM; 2 μM CsgA, 50 μM α-synuclein; ThT fluorescence at 40 hours; read-out: Inhibition of Aggregation CsgA-seeded αSyn
T1 construct: made in house; host or cells: E. coli NEB 3016 slyD::kan (CsgA, pET11d); E. coli (α-synuclein)
Description: In Vitro Thioflavin T Assay to Determine the Effects of Compounds on CsgA-Seeded α-Synuclein Aggregation.
To induce over-expression of CsgA, 0.5 mM IPTG was added to cultures with an optical density at 600 nm (OD600) of 0.8-1, and induced cells were cultured at 37° C. for 1 hour prior to harvest via centrifugation. […] Buffers with imidazole were freshly prepared prior to the protein purification. Purified CsgA was passed through a 30 kDa molecular weight cut-off filter and through a desalting column. All steps of the CsgA purification in the absence of guanidine hydrochloride were conducted in rapid succession with as little delay as possible. […] The ammonium sulfate pellet was washed with an equal volume of 100 mM ammonium acetate in ethanol, pelleted via centrifugation, washed twice with ethanol, dried overnight, resuspended in 10 mM Tris pH 7.4, and passed through a 50 kDa cut-off column. The assay was conducted in 96-well black microplates with a single glass 2 mm bead per well, 40 μM ThioflavinT, 1% DMSO, 2 μM CsgA, 50 μM α-synuclein, 100 mM sodium chloride, 9.3 mM potassium phosphate pH 7.3, and compounds at 50 μM. […] The effect of compounds on CsgA-seeded α-synuclein aggregation in the assay was determined with data from 40 hours, following the plateau of the fluorescent signal in the untreated (no compound) control wells containing CsgA and α-synuclein. Fluorescence values for each compound with CsgA and α-synuclein were first adjusted by subtracting the average fluorescence of the compound in the absence of CsgA and α-synuclein.

human α-synuclein = target: T2, human α-synuclein (Homo sapiens, UniProt P37840); assay: In vitro Thioflavin T assay of α-synuclein aggregation; format: biochemical; details: compounds at 50 μM, 50 μM α-synuclein, ThT fluorescence at 40 hours
T2 construct: made in house; host or cells: E. coli
Description: In Vitro Thioflavin T Assay to Determine the Effects of Compounds on α-Synuclein Aggregation.
The ammonium sulfate pellet was washed with an equal volume of 100 mM ammonium acetate in ethanol, pelleted via centrifugation, washed twice with ethanol, dried overnight, resuspended in 10 mM Tris pH 7.4, and passed through a 50 kDa cut-off column. The assay was conducted in 96-well black microplates with a single 2 mm bead in each well, 40 μM ThioflavinT, 1% DMSO, 50 μM α-synuclein, 100 mM sodium chloride, 9.3 mM potassium phosphate pH 7.3, 4.6 mM Tris pH 7.4 (added as the solvent for α-synuclein or independently for controls lacking α-synuclein), and compounds at 1 μM or 50 μM. […] Readings were performed hourly for up to 73 hours. The effect of compounds on α-synuclein aggregation in the assay was determined with data from 40 hours, following the plateau of the fluorescent signal in the untreated (no compound) control wells containing α-synuclein. Fluorescence values for each compound with α-synuclein were first adjusted by subtracting the average fluorescence of the compound in the absence of α-synuclein.

[2] = test system: Thy1-αSyn mice (ASO) mono-colonized with WT E. coli; assay: Motor function of germ-free Thy1-αSyn (ASO) mice mono-colonized with WT E. coli, EGCG in drinking water; format: in vivo, mouse; details: EGCG ad lib in drinking water vs vehicle
Description: Evidence has linked unregulated α-synuclein expression in humans to a higher risk of PD, providing an epidemiological foundation for the Thy1-α-synuclein mouse model. Defects in coordinated motor tasks become evident at 12 weeks of age. Motor function is measured via four tests: beam traversal, pole descent, nasal adhesive removal, and hind limb clasping reflexes, as previously validated in this model (described in Fleming et al., J. Neurosci. 24, 9434-9440 (2004), and Sampson et al., Cell 167(6):1469-1480 (2016) the content of which are hereby expressly incorporated by reference in its entirety). […] Removal of an adhesive from the nasal bridge, a test of fine motor control, is also impaired in SPF-ASO mice compared to SPF-WT mice, as is the hind limb clasping reflex, a measure of striatal dysfunction.
Germ-free Thy1-αSyn mice (ASO) mono-colonized with WT E. coli at 5-6 weeks of age, and given water alone (Vehicle: Veh) or treated with EGCG ad lib in drinking water (+EGCG). RNA was extracted from fecal pellets and csgA expression quantified by qRT-PCR, relative to rrsA. FIG. 1C is a graph showing fold-change in csgA expression. Motor function was assessed at 15-16 weeks of age by quantifying beam traversal time (FIG. 1D), pole descent time (FIG. 1E), nasal adhesive removal time (FIG. 1F), hindlimb clasping score (FIG. 1G), and wire hang tests (FIG. 1H). Time to cross, time to descent, time to remove, and hindlimb score were lower in the EGCG-treated mice, while time to fall was higher in the EGCG-treated mice compared to vehicle treated control.
Inhibition of functional amyloid formation was studied. Germ-free Thy1-αSyn mice (ASO) were monocolonized with wild-type E. coli and treated with water alone (Vehicle, Veh) or given EGCG ad lib in drinking water (+EGCG). Motor function was assessed at 10, 12, and 15 weeks of age by quantifying beam traversal time (FIG. 5A), pole descent time (FIG. 5B), nasal adhesive removal time (FIG. 5C), hindlimb clasping score (FIG. 5D), and wire hang tests (FIG. 5E). FIG. 5F depicts principal component analysis of compiled motor scores from FIGS. 5A-D. Thin sections of brain were stained for Iba1 (microglia) and morphological characteristics quantified of microglia resident in the striatum (FIGS. 5G-H) and substantia nigra (FIGS. 5I-J). N=10-11 (FIGS. 5A-F), n=3 (FIGS. 5G-J) (averaged from 5-7 cells for branching). Bars represent the mean and standard error. Time courses analyzed by two-way ANOVA, with Sidak post-hoc test for between group comparisons indicated above individual time points, and brackets indicating significance between treatments. Data in (FIGS. 5G-J) analyzed by two-tailed t-test. *p≤0.05; **p≤0.01; ****p≤0.0001.

O=C(O[C@@H]1Cc2c(O)cc(O)cc2O[C@@H]1c1cc(O)c(O)c(O)c1)c1cc(O)c(O)c(O)c1 [EGCG, epigallocatechin gallate]
inhibition at 50 µM [1]: 77%
inhibition at 50 µM (human α-synuclein; read-out: Inhibition of Aggregation αSyn): 99%
inhibition at 50 µM (human α-synuclein; read-out: Inhibition of Aggregation αSyn (compound activity range)): > 60%
progressive motor deficits exacerbated by E. coli (motor performance) [2]: successfully dampens progressive motor deficits
beam traversal time (time to cross) ([2]; 15-16 weeks of age): lower
hindlimb clasping score ([2]; 15-16 weeks of age): lower
nasal adhesive removal time (time to remove) ([2]; 15-16 weeks of age): lower
pole descent time (time to descent) ([2]; 15-16 weeks of age): lower
wire hang test (time to fall) ([2]; 15-16 weeks of age): higher
